Assay results taken from PubChem BioAssay (NCI).
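Compound exposure: 48 hours, 5 concentrations, 96-well plates. Abbreviation: GI50, concentration required for 50% inhibition of growth. TGI: total growth inhibition.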

How the values were obtained:
Test in all cases: DTP human tumour cell line panel, 48 h
NCI-H460 lung = tested on: NCI-H460 lung
A549 NSCLC = tested on: A549 NSCLC
RPMI-8226 leukemia = tested on: RPMI-8226 leukemia
SF-268 CNS = tested on: SF-268 CNS
U251 CNS = tested on: U251 CNS
SNB-19 CNS = tested on: SNB-19 CNS
SF-295 CNS = tested on: SF-295 CNS
HCT-15 colon = tested on: HCT-15 colon
HOP-92 NSCLC = tested on: HOP-92 NSCLC
T-47D breast = tested on: T-47D breast

SMILES	TGI (NCI-H460 lung) [µM]	TGI (A549 NSCLC) [µM]	TGI (RPMI-8226 leukemia) [µM]	TGI (SF-268 CNS) [µM]	TGI (U251 CNS) [µM]	TGI (SNB-19 CNS) [µM]	TGI (SF-295 CNS) [µM]	TGI (HCT-15 colon) [µM]	TGI (HOP-92 NSCLC) [µM]	TGI (T-47D breast) [µM]	GI50 (NCI-H460 lung) [µM]	GI50 (A549 NSCLC) [µM]	GI50 (RPMI-8226 leukemia) [µM]	GI50 (SF-268 CNS) [µM]	GI50 (U251 CNS) [µM]	GI50 (T-47D breast) [µM]	GI50 (SNB-19 CNS) [µM]	GI50 (SF-295 CNS) [µM]	GI50 (HCT-15 colon) [µM]	GI50 (HOP-92 NSCLC) [µM]
Cc1cc(C)c(-c2noc(-c3ccc(Cl)cc3)c2C2=NCCCN2)c(C)c1	28.8	> 100	45.3	49.6	25.8	> 100	25.4	> 100	–	–	–	–	–	–	–	–	–	–	–	–
Clc1cccc(-c2nnc(-c3nn(-c4ccccc4)c4nc5ccccc5nc34)o2)c1	> 100	> 100	> 100	> 100	> 100	> 100	> 100	> 100	–	–	–	–	–	–	–	–	–	–	–	–
O=C(Nc1ccc(Cl)cc1Cl)OC(Cn1cncn1)c1ccc(Cl)cc1Cl (stereo not given)	–	33	> 100	31.9	29.7	30.8	31.4	31.1	–	–	–	–	–	–	–	–	–	–	–	–
COc1c(-c2ccccc2)nc2ccc(Oc3ccccc3)nn12	> 100	> 100	> 70.9	> 100	> 100	> 100	> 100	> 100	> 100	–	–	–	–	–	–	–	–	–	–	–
O=C(/C=C\c1cccc2ccccc12)c1ccc(Cl)cc1Cl	51.6	> 100	46.6	51.9	30.7	72.9	49.9	26.6	–	–	–	–	–	–	–	–	–	–	–	–
CC1(C)CCCC(C)(C2CCC3(C)C2C(O)CC2C4(C)CCC(O)C(C)(C)C4CCC23C)O1 (stereo not given)	> 100	> 100	–	> 100	> 100	> 100	> 100	> 100	> 100	> 100	–	–	–	–	–	–	–	–	–	–
CC1CCC2CC(=O)OC([C@@H]3C(=O)O[C@@H](C4=CCCC4)C4C(C)CCC43)C12 (stereo not given in full)	> 100	> 100	> 100	> 100	> 100	> 100	> 100	> 100	–	–	–	–	–	–	–	–	–	–	–	–
COc1ccc(S(=O)(=O)N(CC(=O)O)c2ccccc2)cc1	> 100	> 100	> 100	> 100	> 100	> 100	> 100	> 100	> 100	–	–	–	–	–	–	–	–	–	–	–
Nc1c(Cl)ncnc1NCCCCCCCCCCCCNc1ncnc(Cl)c1N	10.1	–	5.74	> 100	4.64	> 100	5.92	> 100	4.3	–	–	–	–	–	–	–	–	–	–	–
O=C(Nc1ccc(Cl)c(Cl)c1)C(=O)C(C(=O)c1ccccc1-c1ccccc1)C1OC(=O)c2ccccc21 (stereo not given)	62.6	63.2	63.5	72.2	23	–	73.6	–	30.2	–	–	–	–	–	–	–	–	–	–	–
CC(=O)C1=C(O)C=C2Oc3c(C(=O)/C=C/c4cc(Cl)cc(Cl)c4)c(O)c(C)c(O)c3[C@]2(C)C1=O	1.77	2.98	1.14	3.38	1.06	3.06	0.887	2.54	–	1.36	0.528	0.566	0.452	0.67	0.41	0.435	0.582	0.36	0.539	–
COC(=O)[C@@H]1Cc2c([nH]c3ccccc23)[C@H](c2ccccc2)N1	> 100	> 100	–	> 100	> 100	> 100	64.4	41.3	> 100	–	–	–	–	–	–	–	–	–	–	–
CCCCCCCCCC[C@H](O)[C@H](O)CC[C@@H](O)[C@H]1CC[C@@H]([C@H]2CC[C@H](CCCCCCC[C@@H](O)CC3=C[C@H](C)OC3=O)O2)O1	29.6	> 100	50.4	> 100	> 100	–	31.9	> 100	–	42.8	0.39	20.7	16.6	29.3	–	4.22	29.5	0.416	23.8	–
CN(/N=C/c1ccnc2ccccc12)c1c([N+](=O)[O-])cc([N+](=O)[O-])cc1[N+](=O)[O-]	> 100	> 100	> 100	> 100	> 100	> 100	> 100	> 100	> 100	–	–	–	–	–	–	–	–	–	–	–
COc1ccc(OC)c(/C=N/N=C(\N)NO)c1	> 100	> 100	–	> 100	> 100	> 100	> 100	> 100	83.6	–	–	–	–	–	–	–	–	–	–	–
CN(/N=C\c1ccnc2ccccc12)c1ccc([N+](=O)[O-])cc1	–	> 100	65.4	> 100	> 100	> 100	> 100	> 100	> 100	–	–	–	–	–	–	–	–	–	–	–
COC(=O)[C@@]12CC(C(C)C)[C@H]3CC(C(=O)C=C1OC)[C@H]32 (stereo not given in full)	> 100	> 100	> 100	> 100	> 100	> 100	> 100	> 100	> 100	–	–	–	–	–	–	–	–	–	–	–
COC(=O)C1=CC2C=CC(C1C(=O)OC)C1C(C(=O)OC)=C(C(=O)OC)C(C(=O)OC)=C(C(=O)OC)C21OC (stereo not given)	> 100	> 100	> 100	> 100	> 100	–	> 100	> 100	> 100	–	–	–	–	–	–	–	–	–	–	–
N/N=C(/Cc1nc2ccc(C(=O)c3ccccc3)cc2[nH]c1=O)C(=O)Nc1ccc([N+](=O)[O-])cc1[N+](=O)[O-]	> 100	> 100	> 100	> 100	> 100	> 100	> 100	> 100	–	–	> 100	> 100	> 100	> 100	> 100	–	–	> 100	> 100	–
CCOC(=O)C(C#N)C1=CC(=O)C(=O)c2ccc(O)cc21 (stereo not given)	> 100	> 100	> 100	> 100	> 100	> 100	> 100	> 100	–	> 100	–	–	–	–	–	–	–	–	–	–
CC(=O)[C@H]1CCC2[C@@H]3CC=C4C[C@@H]([O-])CC[C@]4(C)C3CC[C@@]21C.CC(=O)[C@H]1CCC2[C@@H]3CC=C4C[C@@H]([O-])CC[C@]4(C)C3CC[C@@]21C.CC(=O)[CH-]C(=O)c1ccccc1.CC(=O)[CH-]C(=O)c1ccccc1.Cl.[Ti+4] (stereo not given in full)	52.6	> 100	> 100	92.8	–	–	46.4	> 100	–	–	13.9	23.6	15	21.3	–	–	–	17.4	17.6	–

SMILES	TGI (NCI-H460 lung) [µM]	TGI (A549 NSCLC) [µM]	TGI (RPMI-8226 leukemia) [µM]	TGI (SF-268 CNS) [µM]	TGI (U251 CNS) [µM]	TGI (SNB-19 CNS) [µM]	TGI (SF-295 CNS) [µM]	TGI (HCT-15 colon) [µM]	TGI (HOP-92 NSCLC) [µM]	TGI (T-47D breast) [µM]	GI50 (NCI-H460 lung) [µM]	GI50 (A549 NSCLC) [µM]	GI50 (RPMI-8226 leukemia) [µM]	GI50 (SF-268 CNS) [µM]	GI50 (U251 CNS) [µM]	GI50 (T-47D breast) [µM]	GI50 (SNB-19 CNS) [µM]	GI50 (SF-295 CNS) [µM]	GI50 (HCT-15 colon) [µM]	GI50 (HOP-92 NSCLC) [µM]
Cc1nc2c(o1)C(=Nc1ccccc1)c1nc(C)oc1C2=Nc1ccccc1	> 100	54.1	> 100	47.9	33.1	42.5	46.7	> 100	44.1	–	–	–	–	–	–	–	–	–	–	–
O=C(/C=C/c1cccc([N+](=O)[O-])c1)c1ccc([N+](=O)[O-])cc1	> 100	> 100	–	> 100	> 100	> 100	> 100	> 100	–	–	–	–	–	–	–	–	–	–	–	–
Cn1c2c(c3c(Cl)nncc31)Cc1ccccc1-2	67.1	> 100	> 100	> 100	> 100	51.1	66.7	> 100	43	–	5.28	20.6	18.1	25.9	20	–	12.9	17.5	22.2	9.47
COC(=O)C1C(=O)O[C@@H](c2cc(OC)c(OC)cc2OC)C1C(=O)OC (mixture of isomers)	> 100	> 100	> 100	> 100	> 100	> 100	> 100	> 100	> 100	–	–	–	–	–	–	–	–	–	–	–
CCNC(=O)Oc1ccc(/C(=C(/C)Cc2ccc(OC)cc2)c2ccc(OCCN(CC)CC)cc2)cc1	3.5	3.62	4.5	4.75	3.2	6.16	3.25	3.06	–	4.23	1.85	1.87	1.99	1.98	1.73	1.3	2.57	1.66	1.51	–
O=C(O)C1[O][Sb][O]C(C(=O)O)C1O (stereo not given)	> 100	> 100	–	> 100	> 100	> 100	> 100	> 100	> 100	> 100	> 100	> 100	–	> 100	> 100	> 100	> 100	> 100	> 100	> 100
CCOc1ccccc1N=Nc1c(-c2ccccc2)nn(C(=O)CC(=O)Nc2cccc(C)c2)c1-c1ccccc1	> 100	> 100	> 100	> 100	> 100	> 100	> 100	–	> 100	–	–	–	–	–	–	–	–	–	–	–
CC1=CC(C)(C)NN1C1=NS(=O)(=O)c2ccccc2N1C	> 100	> 100	–	> 100	> 100	> 100	> 100	> 100	> 100	> 100	–	–	–	–	–	–	–	–	–	–
CC1NC(=O)C2=C1C(=O)NC(=O)C2 (stereo not given)	> 100	> 100	> 100	> 100	–	–	> 100	> 100	> 100	–	> 100	> 100	> 100	> 100	–	–	–	> 100	> 100	> 100
CNS(=O)(=O)NNS(=O)(=O)c1ccc(OC)cc1	> 100	> 100	> 100	> 100	> 100	> 100	> 100	> 100	–	–	–	–	–	–	–	–	–	–	–	–
NC1=NN(c2ccccc2)C(=O)C1C(=O)C(=O)Nc1ccc(Cl)c(Cl)c1 (stereo not given)	> 100	> 100	> 100	> 100	> 100	> 100	> 100	> 100	> 100	–	–	–	–	–	–	–	–	–	–	–
CCNC(=O)OCc1c(COC(=O)NCC)c(-c2ccc(Cl)c(Cl)c2)n2c1CCC2	25.7	82.3	27.9	32.8	28.6	68.1	36.7	36.9	24.4	–	–	–	–	–	–	–	–	–	–	–
COc1cc(/C=N/N=C(\N)NO)c(Cl)cc1O	–	> 100	> 100	> 100	> 100	> 100	> 100	> 100	73.2	–	–	–	–	–	–	–	–	–	–	–
N#CC(C(=O)/C(=N\NC(N)=O)C(C#N)c1ccccc1)c1ccccc1 (stereo not given)	> 100	> 100	> 100	> 100	> 100	> 100	> 100	> 100	> 100	–	–	–	–	–	–	–	–	–	–	–
COC1(OC)C2(Cl)C(Cl)=C(Cl)C1(Cl)C1C2C2CC1(C(=O)O)c1ccccc12 (stereo not given)	47.8	> 100	54.5	55.8	35.5	> 100	56.8	62.3	93.4	–	–	–	–	–	–	–	–	–	–	–
O=C1c2ccccc2C2CCC1c1ccccc12 (stereo not given)	> 100	> 100	57	> 100	> 100	> 100	> 100	> 100	72.2	–	–	–	–	–	–	–	–	–	–	–
COC1OC2COC(C)(C)OC2C(OC(C)=O)C1NC(=O)N(CCCl)N=O (stereo not given)	> 100	> 100	–	> 100	> 100	> 100	> 100	> 100	–	–	–	–	–	–	–	–	–	–	–	–
O=C(c1ccc(Cl)cc1)C(O)c1ccc(Cl)cc1 (stereo not given)	> 100	> 100	> 100	> 100	> 100	> 100	> 100	> 100	> 100	–	–	–	–	–	–	–	–	–	–	–
Clc1cccc(C2N3CCCCC3[C@@H]3c4[nH]c5ccccc5c4CCN23)c1 (stereo not given in full)	46.1	> 100	81.8	> 100	73.5	> 100	> 100	> 100	> 100	–	–	–	–	–	–	–	–	–	–	–
C/C=C1\CN2CCc3c([nH]c4ccccc34)C2CC1CCO (stereo not given)	> 100	> 100	–	> 100	> 100	> 100	> 100	> 100	> 100	–	–	–	–	–	–	–	–	–	–	–
